Reference: patent US9855270B2, “Methods and compositions for modulating estrogen receptor mutants” (priority 2014, dated 2018)
Read-outs that look alike come from different tables or passages of the source.

Columns and labels:
[1] = system: MCF-7 cells stably expressing EF1 HA-ER-α E380Q; test: cells; type: cell-based; settings: EF1 HA-ER-α E380Q; for Efficacy (Emax): Day 5 relative to Day 0; for Percent inhibition compared to vehicle: 5-Day Incubation; for EC50: Homo sapiens, MCF7, read-out: Potency (EC50; nM)
Outline: (§1)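 CellTiter-Glo read-out: background-subtracted RLU divided by day-0 RLU gives fold proliferation. Cells were MCF-7 transduced with HA-ER-α lentivirus (EF1 high or UbC low-moderate promoter) or empty vector, dosed 10 μM–5 pM for 5 days in phenol-free RPMI/10% CSS.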

[2] = system: MCF-7 cells stably expressing UbC HA-ER-α E380Q; test: cells; type: cell-based; settings: UbC HA-ER-α E380Q; for EC50: Homo sapiens, MCF7, read-out: Potency (EC50; nM); for Efficacy (Emax): Day 5 relative to Day 0; for Percent inhibition compared to vehicle: 5-Day Incubation
Outline: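 MCF-7 lines stably expressing N-terminal HA-tagged ESR1 (wild-type or mutant) from EF1 (puromycin-selected) or UbC (hygromycin-selected) lentiviral vectors, or empty vector, were seeded in phenol-free RPMI with 10% CSS.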

[3] = system: MCF-7 cells stably expressing UbC HA-ER-α L536R; test: cells; type: cell-based; settings: UbC HA-ER-α L536R; for EC50: Homo sapiens, MCF7, read-out: Potency (EC50; nM); for Efficacy (Emax): Day 5 relative to Day 0; for Percent inhibition compared to vehicle: 5-Day Incubation
Outline: as §1

[4] = system: MCF-7 cells stably expressing UbC HA-ER-α Y537N; test: cells; type: cell-based; settings: UbC HA-ER-α Y537N; for EC50: Homo sapiens, MCF7, read-out: Potency (EC50; nM); for Efficacy (Emax): Day 5 relative to Day 0; for Percent inhibition compared to vehicle: 5-Day Incubation
Outline: as §1

[5] = system: MCF-7 cells stably expressing ER-α mutants; settings: 5 day proliferation assays; depending on the mutation and assay format
Protocol: Potency and efficacy of ERM 1-3 were measured in vitro in ER dependent transcriptional reporter assays and viability assays of MCF-7 cells stably expressing ER-α mutants.
MCF-7 Mutant ER-α Stable Cell Line Generation: MCF-7 cells stably expressing wild-type or ER-α mutants were generated by subcloning ESR1 wild-type and mutant cDNAs containing an amino terminal hemagglutinin tag into pCDH-EF1-MCS-(PGK-Puro) (referred to as EF1 HA-ER-α) and pCDH-UbC-MCS-EF1-Hygro (referred to as UbC HA-ER-α) (System Biosciences). The resulting plasmids, in addition to an empty vector negative control, were subsequently cotransfected into HEK293T cells with the pPACKH1 packaging plasmid mix (System Biosciences) according to the manufacturer's protocol. Four days post transfection lentiviral particles were purified from the cell medium, tiered and stored at −80° C. MCF-7 cells were transduced with the purified viral particles and stable cell lines were selected by growth in RPMI containing 10% FBS plus 1 μG/mL puromycin or 200 μG/mL hygromycin for pCDH-EF1-MCS-(PGK-Puro) and pCDH-UbC-MCS-EF1-Hygro, respectively.
MCF-7 Stable Cell Line Viability: MCF-7 cells were enumerated with a hemacytometer adjusted to a concentration of 40,000 cells per mL in Phenol Free RPMI containing 10% CSS with NEAA and Sodium Pyruvate. 16 microliters of the cell suspension was added to each well of a 384 well tissue culture treated white clear bottom polystyrene plate (Corning) using a Matrix 16 channel electronic pipette. The cells were incubated overnight to allow the cells to adhere. […] The “average” of the relative luminescence units (RLUs) of the wells are considered to be the baseline value at time=zero. […] The relative luminescence units (RLUs) of each well were measured, and relative proliferation (fold) of each sample was determined as follows: (RLU sample−RLU background)/(RLU at T=0)=relative proliferation
Potency and efficacy of ERM 4-23 were measured in vitro in ER dependent transcriptional reporter assays and viability assays of MCF-7 cells stably expressing ER-α mutants.

wild-type ER-α = biological target: T1, wild-type ER-α (Homo sapiens, UniProt P03372)
T1 sequence (P03372 1-595): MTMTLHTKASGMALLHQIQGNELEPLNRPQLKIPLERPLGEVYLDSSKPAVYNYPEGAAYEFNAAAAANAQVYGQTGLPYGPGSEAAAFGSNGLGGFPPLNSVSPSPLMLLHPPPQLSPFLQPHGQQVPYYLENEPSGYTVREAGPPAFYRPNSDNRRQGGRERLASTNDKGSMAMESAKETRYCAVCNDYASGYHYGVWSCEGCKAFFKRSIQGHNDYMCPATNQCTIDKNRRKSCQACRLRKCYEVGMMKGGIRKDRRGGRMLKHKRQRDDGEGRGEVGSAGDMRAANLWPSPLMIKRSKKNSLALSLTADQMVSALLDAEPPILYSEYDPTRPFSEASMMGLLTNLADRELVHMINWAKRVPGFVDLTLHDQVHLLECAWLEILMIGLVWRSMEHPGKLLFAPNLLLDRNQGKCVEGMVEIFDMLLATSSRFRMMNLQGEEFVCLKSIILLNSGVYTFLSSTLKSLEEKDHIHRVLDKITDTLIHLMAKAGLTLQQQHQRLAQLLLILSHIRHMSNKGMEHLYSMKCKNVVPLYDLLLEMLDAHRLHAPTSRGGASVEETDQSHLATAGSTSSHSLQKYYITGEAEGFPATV

[6] = Antagonist Mode, −E2 (Table 27)
[7] = Agonist Mode, −E2, relative to vehicle treated wild-type ER-α
[8] = Antagonist Mode, +E2, relative to vehicle treated wild-type ER-α

Compound | Efficacy (Emax) ([1]; Antagonist Mode, +E2) | EC50 ([2]; Agonist Mode, −E2) [nM] | Efficacy (Emax) ([2]; Agonist Mode, −E2) | Efficacy (Emax) ([2]; Antagonist Mode, +E2) | EC50 ([3]; Agonist Mode, −E2) [nM] | Efficacy (Emax) ([3]; Agonist Mode, −E2) | Efficacy (Emax) ([3]; Antagonist Mode, +E2) | EC50 ([4]; Agonist Mode, −E2) [nM] | Efficacy (Emax) ([4]; Antagonist Mode, +E2) | Percent inhibition compared to vehicle ([1]; Agonist Mode, −E2) [%] | Efficacy (Emax) ([1]; Agonist Mode, −E2) | Percent inhibition compared to vehicle ([1]; Antagonist Mode, +E2) [%] | EC50 ([1]; Antagonist Mode, +E2) [nM] | EC50 [1, 6] [nM] | EC50 ([2]; Antagonist Mode, +E2) [nM] | Percent inhibition compared to vehicle ([2]; Agonist Mode, −E2) [%] | Percent inhibition compared to vehicle ([2]; Antagonist Mode, +E2) [%] | EC50 ([3]; Antagonist Mode, +E2) [nM] | Percent inhibition compared to vehicle ([3]; Agonist Mode, −E2) [%] | Percent inhibition compared to vehicle ([3]; Antagonist Mode, +E2) [%] | other results
C[C@]12CC[C@@H]3c4ccc(O)cc4CC[C@H]3[C@@H]1CC[C@@H]2O [17β-Estradiol] | 5.75 ± 0.17 | 0.013 ± 0.011 | 7.36 ± 1.07 | 7.69 ± 1.94 | 0.008 ± 0.006 | 5.72 ± 0.74 | 5.92 ± 0.67 | 0.126 ± 0.233 | 6.49 ± 0.97 | – | – | – | – | – | – | – | – | – | – | – | –
CC1=C(c2cccc(O)c2)[C@H](c2ccc(OCCN3CC(CF)C3)cc2)Oc2ccc(O)cc21 [Compound 4-23, (S)-2-(4-(2-(3-(fluoromethyl)azetidin-1-yl)ethoxy)phenyl)-3-(3-hydroxyphenyl)-4-methyl-2H-chromen-6-ol] | 2.39 ± 0.24 | 0.208 ± 0.141 | 1.78 ± 0.28 | 1.61 ± 0.34 | 0.334 ± 0.27 | 1.80 ± 0.26 | 1.73 ± 0.31 | 0.446 ± 0.219 | 1.70 ± 0.03 | 63 | 2.43 ± 0.02 | 62 | 14 ± 15.4 | 3.76 ± 3.11 | 1.02 ± 0.163 | 58 | 77 | 2.58 ± 0.181 | 53 | 71 | EC50 ([4]; Antagonist Mode, +E2): 2.64 ± 1.86 nM; Percent inhibition compared to vehicle ([4]; Agonist Mode, −E2): 62%; Efficacy (Emax) ([4]; Agonist Mode, −E2): 1.63 ± 0.17; Percent inhibition compared to vehicle ([4]; Antagonist Mode, +E2): 74%; reduced the number of viable cells (compared to DMSO control) [5]: 49%-90%; Percent inhibition compared to vehicle (wild-type ER-α; Agonist Mode, −E2): 86%; Efficacy (Emax) (wild-type ER-α; [7]): 0.14 ± 0.10; Percent inhibition compared to vehicle (wild-type ER-α; Antagonist Mode, +E2): 96%; Efficacy (Emax) (wild-type ER-α; [8]): 0.08 ± 0.07
C[C@]12CC[C@@H]3c4ccc(O)cc4C[C@@H](CCCCCCCCC[S+]([O-])CCCC(F)(F)C(F)(F)F)[C@H]3[C@@H]1CC[C@@H]2O (some centres unmarked) [Fulvestrant] | 2.21 ± 0.12 | 0.248 ± 0.094 | 1.70 ± 0.30 | 1.70 ± 0.32 | 0.257 ± 0.09 | 1.71 ± 0.22 | 1.71 ± 0.16 | 0.355 ± 0.163 | 1.49 ± 0.00 | 62 | 2.50 ± 0.03 | 65 | 10.3 ± 2.62 | 4.36 ± 3.23 | 1.14 ± 0.028 | 60 | 76 | 2.3 ± 1.81 | 55 | 71 | EC50 ([1]; Agonist Mode, −E2): 4.36 ± 3.23 nM; EC50 ([4]; Antagonist Mode, +E2): 1.77 ± 0.387 nM; Percent inhibition compared to vehicle ([4]; Agonist Mode, −E2): 63%; Efficacy (Emax) ([4]; Agonist Mode, −E2): 1.61 ± 0.15; Percent inhibition compared to vehicle ([4]; Antagonist Mode, +E2): 77%; Efficacy (Emax) (wild-type ER-α; [7]): 0.15 ± 0.09; Efficacy (Emax) (wild-type ER-α; [8]): 0.06 ± 0.08
